Data as given in patent publication US20230092490A1, “PHARMACEUTICAL COMPOSITIONS COMPRISING DASATINIB ANHYDROUS AND USES THEREOF” (ZENTIVA K.S., priority 2020, published 2023).
Read-outs that look alike come from different tables or passages of the source.

Experiments:
[1] = Preliminary bioequivalence study of DA1 vs. RP in eighty healthy subjects; assay type: in vivo, human; conditions: total study population
Description: First, a preliminary bioequivalence study assessed in-vivo absorption of DA1 and RP. This bioequivalence study and its results are summarized in Example 2, below, and data are shown in FIG. 3 to FIG. 6 for four exemplary subjects A to D in that study.
Example 3, together with corresponding Table 4, presents additional results from the clinical study of Example 2, comparing the bioavailability of DA1 vs RP.
A preliminary bioequivalence study in eighty (80) healthy subjects was conducted to test the in-vivo absorption of RP and DA1.
Additional data from the bioequivalence study of Example 2, which compared the bioequivalence of DA1 against the reference product (“RP”) are summarised in Table 4 below.

[2] = cited from earlier work
[3] = pH 2.6; cited from earlier work
[4] = Oral bioavailability and pharmacokinetics of dasatinib monohydrate (background); conditions: human, in vivo, read-out: subjects exhibiting atypical pharmacokinetic profiles (reduced bioavailability, likely achlorhydria or hypochlorhydria)
[5] = in vivo; cited from earlier work
[6] = administered 10 hours following the H2 antagonist famotidine
[7] = co-administration with aluminium hydroxide or magnesium hydroxide
[8] = single 100 mg dose 22 hours following a 4-day 40-mg omeprazole dose at steady state

Row | Compound | absorption across all subjects [1] | reduction of AUC [2, 6] | reduction of Cmax [2, 6] | reduction in Cmax [2, 7] | reduction of the area under the curve (AUC) [2, 7] | reduction of AUC [2, 8] | reduction of Cmax [2, 8] | thermodynamic (equilibrium) solubility [3] | percentage of subjects with atypical pharmacokinetic profiles [4] | time at which peak concentration is reached [5]
1 | Cc1nc(Nc2ncc(C(=O)Nc3c(C)cccc3Cl)s2)cc(N2CCN(CCO)CC2)n1 [Dasatinib anhydrous, N-(2-chloro-6-methylphenyl)-2-[[6-[4-(2-hydroxyethyl)-1-piperazinyl]-2-methyl-4-pyrimidinyl]amino]-5-thiazolecarboxamide] | absorbed in all subjects | – | – | – | – | – | – | – | – | –
2 | Cc1nc(Nc2ncc(C(=O)Nc3c(C)cccc3Cl)s2)cc(N2CCN(CCO)CC2)n1 [dasatinib monohydrate, N-(2-chloro-6-methylphenyl)-2-[[6-[4-(2-hydroxyethyl)-1-piperazinyl]-2-methyl-4-pyrimidinyl]amino]-5-thiazolecarboxamide] | – | 61% | 63% | 58% | 55% | 43% | 42% | 18.4 mg/mL | 3.5 to 7.5% | 1 to 2 h
